Assay results: patent publication US8940909B2, “Indicator platform” (Biosynth AG, priority 2009, dated 2015)

Experiments:
Test in all cases: IO staining of colonies of beta-D-galactosidase positive/negative bacteria (Table IVb)
Type in all cases: cell-based
Aeromonas hydrophila 292 = settings: Aeromonas hydrophila strain 292, b-gal +; 24 h on Nutrient Agar, 150 mg/l indicator, 100 mg/l IPTG
Citrobacter freundii 181 = settings: Citrobacter freundii strain 181, b-gal +; 24 h on Nutrient Agar, 150 mg/l indicator, 100 mg/l IPTG
[1] = tested on: Enterobacter aerogenes 242; settings: Enterobacter aerogenes strain 242, b-gal +; 24 h on Nutrient Agar, 150 mg/l indicator, 100 mg/l IPTG; for C: Color of colonies: key: −: absent; +/−: weak; +: strong; ++: very strong; for G: Growth of colonies: key: −: absent; +/−: weak; +: strong; ++: very strong
Enterobacter cloacae 245 = settings: Enterobacter cloacae strain 245, b-gal +; 24 h on Nutrient Agar, 150 mg/l indicator, 100 mg/l IPTG
[2] = tested on: Escherichia coli (O157:H7) 60; settings: Escherichia coli (O157:H7) strain 60, b-gal +; 24 h on Nutrient Agar, 150 mg/l indicator, 100 mg/l IPTG
Escherichia coli 61 = settings: Escherichia coli strain 61, b-gal +; 24 h on Nutrient Agar, 150 mg/l indicator, 100 mg/l IPTG
Escherichia coli 270 = settings: Escherichia coli strain 270, b-gal +; 24 h on Nutrient Agar, 150 mg/l indicator, 100 mg/l IPTG
[3] = tested on: Klebsiella pneumoniae 164; settings: Klebsiella pneumoniae strain 164, b-gal +; 24 h on Nutrient Agar, 150 mg/l indicator, 100 mg/l IPTG; for C: Color of colonies: key: −: absent; +/−: weak; +: strong; ++: very strong; for G: Growth of colonies: key: −: absent; +/−: weak; +: strong; ++: very strong
Serratia marcescens 40 = settings: Serratia marcescens strain 40, b-gal +; 24 h on Nutrient Agar, 150 mg/l indicator, 100 mg/l IPTG
[4] = tested on: Staphylococcus intermedius 31; settings: Staphylococcus intermedius strain 31, b-gal +; 24 h on Nutrient Agar, 150 mg/l indicator, 100 mg/l IPTG
Salmonella bongori 81 = settings: Salmonella bongori strain 81, b-gal +; 24 h on Nutrient Agar, 150 mg/l indicator, 100 mg/l IPTG
Salmonella illa 73 = settings: Salmonella illa strain 73, b-gal +; 24 h on Nutrient Agar, 150 mg/l indicator, 100 mg/l IPTG
[5] = tested on: Shigella dysenteriae Serovar 1 131; settings: Shigella dysenteriae Serovar 1 strain 131, b-gal +/−; 24 h on Nutrient Agar, 150 mg/l indicator, 100 mg/l IPTG
Shigella sonnei 133 = settings: Shigella sonnei strain 133, b-gal +/−; 24 h on Nutrient Agar, 150 mg/l indicator, 100 mg/l IPTG
[6] = tested on: Yersinia enterocolitica 175; settings: Yersinia enterocolitica strain 175, b-gal +/−; 24 h on Nutrient Agar, 150 mg/l indicator, 100 mg/l IPTG; for G: Growth of colonies: key: −: absent; +/−: weak; +: strong; ++: very strong
[7] = tested on: Salmonella enteritidis 43; settings: Salmonella enteritidis strain 43, b-gal −; 24 h on Nutrient Agar, 150 mg/l indicator, 100 mg/l IPTG; note: key: −: absent; +/−: weak; +: strong; ++: very strong
Bacillus subtilis 65 = settings: Bacillus subtilis strain 65, b-gal −; 24 h on Nutrient Agar, 150 mg/l indicator, 100 mg/l IPTG
[8] = tested on: Pseudomonas aeruginosa 168; settings: Pseudomonas aeruginosa strain 168, b-gal −, 24 h on Nutrient Agar, 150 mg/l indicator, 100 mg/l IPTG; for C: Color of colonies: key: −: absent; +/−: weak; +: strong; ++: very strong; for G: Growth of colonies: key: −: absent; +/−: weak; +: strong; ++: very strong
Shigella boydii 135 = settings: Shigella boydii strain 135, b-gal −; 24 h on Nutrient Agar, 150 mg/l indicator, 100 mg/l IPTG
Staphylococcus aureus 2 = settings: Staphylococcus aureus strain 2, b-gal −, 24 h on Nutrient Agar, 150 mg/l indicator, 100 mg/l IPTG
[9] = tested on: Streptococcus agalactiae 195; settings: Streptococcus agalactiae strain 195, b-gal −; 24 h on Nutrient Agar, 150 mg/l indicator, 100 mg/l IPTG; for C: Color of colonies: key: −: absent; +/−: weak; +: strong; ++: very strong; for F: Fluorescence of colonies: key: −: absent; +/−: weak; +: strong; ++: very strong

COc1ccc(C(=O)c2ccccc2-n2cc(O[C@@H]3O[C@H](CO)[C@H](O)[C@H](O)[C@H]3O)c3c(Cl)c(Br)ccc32)c(OC)c1 [Indicator I28a, 5-Bromo-4-chloro-1-[2-(2,4-dimethoxybenzoyl)phenyl]-1H-indol-3-yl-beta-D-galactopyranoside]
+/−: C: Color of colonies (Aeromonas hydrophila 292) | F: Fluorescence of colonies (Citrobacter freundii 181) | F: Fluorescence of colonies [1] | F: Fluorescence of colonies (Enterobacter cloacae 245) | F: Fluorescence of colonies [2] | F: Fluorescence of colonies (Escherichia coli 61) | F: Fluorescence of colonies (Escherichia coli 270) | F: Fluorescence of colonies [3] | C: Color of colonies (Serratia marcescens 40) | F: Fluorescence of colonies [4] | C: Color of colonies (Salmonella bongori 81) | F: Fluorescence of colonies (Shigella sonnei 133) | G: Growth of colonies (Bacillus subtilis 65) | G: Growth of colonies (Staphylococcus aureus 2) | G: Growth of colonies [9]
+: G: Growth of colonies (Aeromonas hydrophila 292) | C: Color of colonies (Citrobacter freundii 181) | G: Growth of colonies (Citrobacter freundii 181) | C: Color of colonies [1] | G: Growth of colonies [1] | C: Color of colonies (Enterobacter cloacae 245) | G: Growth of colonies (Enterobacter cloacae 245) | C: Color of colonies [2] | G: Growth of colonies [2] | C: Color of colonies (Escherichia coli 61) | G: Growth of colonies (Escherichia coli 61) | G: Growth of colonies (Escherichia coli 270) | C: Color of colonies [3] | G: Growth of colonies [3] | G: Growth of colonies (Serratia marcescens 40) | C: Color of colonies [4] | G: Growth of colonies [4] | G: Growth of colonies (Salmonella bongori 81) | G: Growth of colonies (Salmonella illa 73) | G: Growth of colonies [5] | C: Color of colonies (Shigella sonnei 133) | G: Growth of colonies (Shigella sonnei 133) | G: Growth of colonies [6] | G: Growth of colonies [7] | G: Growth of colonies [8] | G: Growth of colonies (Shigella boydii 135)
+^1: F: Fluorescence of colonies ([8]; footnote 1: blue autofluorescence)
−: F: Fluorescence of colonies (Aeromonas hydrophila 292) | F: Fluorescence of colonies (Serratia marcescens 40) | F: Fluorescence of colonies (Salmonella bongori 81) | C: Color of colonies (Salmonella illa 73) | F: Fluorescence of colonies (Salmonella illa 73) | C: Color of colonies [5] | F: Fluorescence of colonies [5] | C: Color of colonies [6] | F: Fluorescence of colonies [6] | C: Color of colonies [7] | F: Fluorescence of colonies [7] | C: Color of colonies (Bacillus subtilis 65) | F: Fluorescence of colonies (Bacillus subtilis 65) | C: Color of colonies [8] | C: Color of colonies (Shigella boydii 135) | F: Fluorescence of colonies (Shigella boydii 135) | F: Fluorescence of colonies (Staphylococcus aureus 2) | C: Color of colonies (Staphylococcus aureus 2; footnote 2: S. aureus natural color) | C: Color of colonies [9] | F: Fluorescence of colonies [9]
++: C: Color of colonies (Escherichia coli 270)
